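48-hour exposure; five concentrations; linearly interpolated endpoints. Here, GI50 denotes the concentration required for 50% inhibition of growth.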 Active and inactive are the calls of the source. Cut-off read from the data, not from the text of the source: active = GI50 up to about 1.1 µM and inactive = higher.
Experiments:
Assay in all cases: inhibition of tumour cell growth, NCI panel, 48 h
HT-29 = test system: HT-29
HOP-92 = test system: HOP-92
LOX IMVI = test system: LOX IMVI
K562 = test system: K562
CCRF-CEM = test system: CCRF-CEM
SF-268 = test system: SF-268
T47D = test system: T47D
OVCAR-8 = test system: OVCAR-8
MOLT-4 = test system: MOLT-4
MCF7 = test system: MCF7
SK-OV-3 = test system: SK-OV-3
SF-295 = test system: SF-295
OVCAR-4 = test system: OVCAR-4
HCT-15 = test system: HCT-15
RPMI-8226 = test system: RPMI-8226
SN12C = test system: SN12C
EKVX = test system: EKVX
HOP-62 = test system: HOP-62
MDA-MB-231 = test system: MDA-MB-231
SF-539 = test system: SF-539

CC1=NN2C(=O)CC(=O)N=C2S1
GI50 (HT-29): > 100 µM (inactive)
GI50 (HOP-92): > 100 µM (inactive)
GI50 (LOX IMVI): > 100 µM (inactive)
GI50 (K562): > 100 µM (inactive)
GI50 (CCRF-CEM): > 100 µM (inactive)
GI50 (SF-268): > 100 µM (inactive)
GI50 (T47D): > 100 µM (inactive)
GI50 (OVCAR-8): > 100 µM (inactive)
GI50 (MOLT-4): > 100 µM (inactive)
GI50 (MCF7): > 100 µM (inactive)
GI50 (SK-OV-3): > 100 µM (inactive)
GI50 (SF-295): > 100 µM (inactive)
GI50 (OVCAR-4): > 100 µM (inactive)
GI50 (HCT-15): > 100 µM
GI50 (RPMI-8226): > 100 µM (inactive)
GI50 (SN12C): > 100 µM (inactive)
GI50 (EKVX): > 100 µM (inactive)
GI50 (HOP-62): > 100 µM (inactive)
GI50 (MDA-MB-231): > 100 µM (inactive)
GI50 (SF-539): > 100 µM (inactive)

O/N=C(\C=N\O)c1ccc2c(c1)Sc1ccccc1O2
GI50 (HT-29): 21.4 µM (inactive)
GI50 (HOP-92): 15.6 µM (inactive)
GI50 (LOX IMVI): 30.5 µM (inactive)
GI50 (K562): 22.1 µM (inactive)
GI50 (CCRF-CEM): 2.39 µM (inactive)
GI50 (SF-268): 16.8 µM (inactive)
GI50 (T47D): 24.5 µM (inactive)
GI50 (OVCAR-8): 22.8 µM (inactive)
GI50 (MOLT-4): 5.43 µM (inactive)
GI50 (MCF7): 16.9 µM (inactive)
GI50 (SK-OV-3): 18.1 µM (inactive)
GI50 (SF-295): 22.3 µM (inactive)
GI50 (OVCAR-4): 25.1 µM (inactive)
GI50 (HCT-15): 25.9 µM
GI50 (RPMI-8226): 12.2 µM (inactive)
GI50 (SN12C): 17.5 µM (inactive)
GI50 (EKVX): 16.5 µM (inactive)
GI50 (HOP-62): 17.5 µM (inactive)
GI50 (MDA-MB-231): 15.7 µM (inactive)
GI50 (SF-539): 26.4 µM (inactive)

O=C1c2ccccc2CN1c1ccc(OCCN2CCCCC2)cc1
GI50 (HT-29): > 10 µM (inactive)
GI50 (HOP-92): > 10 µM (inactive)
GI50 (LOX IMVI): > 10 µM (inactive)
GI50 (K562): > 10 µM (inactive)
GI50 (CCRF-CEM): > 10 µM (inactive)
GI50 (SF-268): > 10 µM (inactive)
GI50 (T47D): > 10 µM (inactive)
GI50 (OVCAR-8): > 10 µM (inactive)
GI50 (MOLT-4): > 10 µM (inactive)
GI50 (MCF7): > 10 µM (inactive)
GI50 (SK-OV-3): > 10 µM (inactive)
GI50 (SF-295): > 10 µM (inactive)
GI50 (OVCAR-4): > 10 µM (inactive)
GI50 (HCT-15): > 10 µM
GI50 (RPMI-8226): > 10 µM (inactive)
GI50 (SN12C): > 10 µM (inactive)
GI50 (EKVX): > 10 µM (inactive)
GI50 (HOP-62): > 10 µM (inactive)
GI50 (MDA-MB-231): > 10 µM (inactive)
GI50 (SF-539): > 10 µM (inactive)
